≈ marks a conversion by molar mass, not a printed value. Read-outs that look alike come from different tables or passages of the source.
Tested on: complement alternative pathway (AP) activity
Assay: MAD study: ex vivo serum AP hemolysis activity and PK-PD analysis
Format: in vivo, human
Details: for minimum AP activity following dosing: Days 7 and 14
Procedure: Ex vivo serum AP hemolysis assays were conducted in 96-well microtiter plates divided into two parts, one for hemolysis and the other for serum background color subtraction. Briefly, a suspension of rabbit red blood cells (RBCs) was centrifuged at 800×g at 4° C. for 3 minutes and the supernatant was removed to get rid of the RBC debris. The RBC cell pellet was re-suspended gently with pre-chilled gelatin veronal buffer (GVB0) containing 10 mM MgEGTA to a density of 5×10^8 cells/mL. Other controls including buffer, spontaneous rabbit RBC lysis, 100% RBC lysis (in water), and normal serum control were set up alongside the test samples as well. Serum was placed in a 37° C. water-bath until mostly thawed and immediately transferred to ice bath. 20% serum was prepared with GVB0-MgEGTA buffer and kept at ice bath before testing. Reactions were carried out in a 96 well plate by mixing 50 μl of 20% serum with equal volume of GVB0-MgEGTA buffer and then quickly adding 20 μl of RBC suspension. The plate was shaken on a microtiter plate shaker for 5 seconds and then incubated at 37° C. for 30 minutes. Halfway during the incubation period, the plate was shaken for another 5 seconds as described above. At the end of the incubation, the plate was centrifuged at 800×g at 4° C. for 3 minutes to pellet the un-lysed rabbit RBCs. 80 μl of supernatant was removed carefully from all wells and transferred to a clear flat-bottom microtiter plate for the measurement of optical absorbance at 405 nm (A405) in a Molecular Devices Spectramax Plus plate reader. AP hemolysis in each well was calculated relative to the activity of the NHS reference sample formulas as follows: Hemolysis (%)=((Hm−Bk)−(Sp−Bf))/((NH−BkNH)−(Sp−Bf))×100%
where Hm=A405 in the hemolysis well, Bk=A405 in the corresponding background well, Sp=mean A405 in the spontaneous hemolysis wells, Bf=mean A405 in the buffer alone wells, NH=mean A405 in the reference NHS wells, and BkNH=mean A405 in the corresponding background wells.
The PK-PD relationship was evaluated using time-matched plasma Compound 1 concentrations and serum AP inhibition values by non-linear regression with GraphPad Prism (La Jolla, CA) using the following two models: • 1. The simple Emax model to determine the 50% effective concentration (EC50): Y=E0+Emax×X/(EC50+X) where X=plasma Compound 1 concentration, Y=percent inhibition in the corresponding serum sample, E0=0% inhibition (pre-dose AP activity), and Emax=100% inhibition. • 2. The four-parameter sigmoidal model to determine EC50 and the 90% effective concentration (EC90): Y=E0+(Emax−E0)/(1+10^((Log EC50−X)×HillSlope)) where X, Y, E0, and Emax are defined as above (Emax model) and HillSlope=the slope factor or Hill slope. Pharmacodynamic and Pharmacokinetic Results AP Activity Measured with AP Hemolysis
A multiple ascending dose (MAD) study of Compound 1 with two additional single-dose cohorts was also completed. […] Secondary objectives included evaluation of the pharmacokinetic (PK) profile and the relationship between Compound 1 PK and pharmacodynamic (PD) characteristics, that is, the inhibition of complement alternative pathway (AP) activity (PK/PD). In the MAD study, multiple-dose pharmacokinetics and pharmacodynamics of Compound 1 were evaluated in four dose groups administered Compound 1 (40, 80, 120 and 200 mg BID) in the fasted state for 14-days (Table 3). Eight subjects received active drug in each group; eight subjects received placebo in the first dose group (40 mg) and two subjects received placebo in each of the other three dose groups. Two additional cohorts were administered Compound 1 at single doses of 240 mg (fasted subjects) and 120 mg (fed subjects) (Table 3). The two single-dose cohorts each comprised six subjects receiving active drug and two subjects receiving placebo. […]

[1] = 40 mg BID, Day 14, AP hemolysis
[2] = 40 mg BID, Days 7 and 14 Combined Analysis, AP hemolysis
[3] = 80 mg BID, Day 14, AP hemolysis
[4] = 80 mg BID, Days 7 and 14 Combined Analysis, AP hemolysis
[5] = 120 mg BID, Day 7, AP hemolysis
[6] = 120 mg BID, Day 14, AP hemolysis
[7] = 120 mg BID, Days 7 and 14 Combined Analysis, AP hemolysis
[8] = 120 mg and 200 mg BID, 14 days, FIG. 13
[9] = 200 mg BID, Day 7, AP hemolysis
[10] = 200 mg BID, Day 14, AP hemolysis
[11] = 200 mg BID, Days 7 and 14 Combined Analysis, AP hemolysis
[12] = Homo sapiens, sigmoidal model, multiple-dose cohorts, AP hemolysis

CC(=O)c1nn(CC(=O)N2[C@H](C(=O)Nc3nc(Br)ccc3C)C[C@@]3(C)C[C@@H]23)c2ccc(-c3cnc(C)nc3)cc12 [Compound 1, (1R,3S,5R)-2-(2-(3-acetyl-5-(2-methylpyrimidin-5-yl)-1H-indazol-1-yl)acetyl)-N-(6-bromo-3-methylpyridin-2-yl)-5-methyl-2-azabicyclo[3.1.0]hexane-3-carboxamide]
% AUEC0-12, Mean (40 mg BID, Day 7, AP hemolysis): 49.9%
DURATION0-12 (time with AP inhibition 90% or greater), Mean (40 mg BID, Day 7, AP hemolysis): 2.0 h
% AUEC0-12, Mean [1]: 61.4%
DURATION0-12 (time with AP inhibition 90% or greater), Mean [1]: 2.6 h
minimum AP activity following dosing (40 mg BID): 4.00%
% AUEC0-12, Mean [2]: 55.6%
DURATION0-12 (time with AP inhibition 90% or greater), Mean [2]: 2.3 h
% AUEC0-12, Mean (80 mg BID, Day 7, AP hemolysis): 87.4%
DURATION0-12 (time with AP inhibition 90% or greater), Mean (80 mg BID, Day 7, AP hemolysis): 7.3 h
% AUEC0-12, Mean [3]: 87.7%
DURATION0-12 (time with AP inhibition 90% or greater), Mean [3]: 8.0 h
% AUEC0-12, Mean [4]: 87.6%
DURATION0-12 (time with AP inhibition 90% or greater), Mean [4]: 7.6 h
mean AP activity (120 mg BID, 0 h to 10 h on Day 7 and 0 h to 12 h on Day 14): below 10%
% AUEC0-12, Mean [5]: 97.5%
DURATION0-12 (time with AP inhibition 90% or greater), Mean [5]: 10.9 h
% AUEC0-12, Mean [6]: 98.8%
DURATION0-12 (time with AP inhibition 90% or greater), Mean [6]: 11.6 h
% AUEC0-12, Mean [7]: 98.2%
DURATION0-12 (time with AP inhibition 90% or greater), Mean [7]: 11.3 h
average reduction in AP hemolysis [8]: over 95%
reduction in AP hemolysis for the duration of the study [8]: over 90%
serum AP hemolysis activity (120 mg single dose fed, from 2 h through 6 h): ≤ 10%
mean AP activity (200 mg BID, 0 h to 12 h on Days 7 and 14): below 10%
% AUEC0-12, Mean [9]: 99.5%
DURATION0-12 (time with AP inhibition 90% or greater), Mean [9]: 11.9 h
% AUEC0-12, Mean [10]: 98.8%
DURATION0-12 (time with AP inhibition 90% or greater), Mean [10]: 11.5 h
% AUEC0-12, Mean [11]: 99.1%
DURATION0-12 (time with AP inhibition 90% or greater), Mean [11]: 11.7 h
time mean inhibition persisted at 90% or greater post-dose (240 mg single dose): at least 12 hours
serum AP hemolysis activity (240 mg single dose fasted, from 1.5 h through 16 h): ≤ 10%
AP inhibition, all subjects (240 mg single dose, within two hours of dosing): ≥ 90%
minimum AP activity following dosing (Groups 2 through 4 (80, 120, 200 mg BID)): 0.00%
inhibition at 40 mg (Homo sapiens, 0 h, 40 mg BID, Days 6 Through 14, AP hemolysis, read-out: AP Inhibition at 0 hr, Mean): 28.7%
inhibition at 80 mg (Homo sapiens, 0 h, 80 mg BID, Days 6 Through 14, AP hemolysis, read-out: AP Inhibition at 0 hr, Mean): 74.1%
inhibition at 120 mg (Homo sapiens, 0 h, 120 mg BID, Days 6 Through 14, AP hemolysis, read-out: AP Inhibition at 0 hr, Mean): 97.2%
inhibition at 200 mg (Homo sapiens, 0 h, 200 mg BID, Days 6 Through 14, AP hemolysis, read-out: AP Inhibition at 0 hr, Mean): 97.6%
inhibition at 40 mg (Homo sapiens, 40 mg BID, Day 7, AP hemolysis, read-out: AP Inhibition at 0 hr, Mean): 20%
inhibition at 40 mg (Homo sapiens, 40 mg BID, Day 7, AP hemolysis, read-out: AP Inhibition at 12 hr, Mean): 17.5%
inhibition at 40 mg (Homo sapiens, 40 mg BID, Day 14, AP hemolysis, read-out: AP Inhibition at 0 hr, Mean): 29.2%
inhibition at 40 mg (Homo sapiens, 40 mg BID, Day 14, AP hemolysis, read-out: AP Inhibition at 12 hr, Mean): 29%
inhibition at 80 mg (Homo sapiens, 80 mg BID, Day 7, AP hemolysis, read-out: AP Inhibition at 0 hr, Mean): 60.5%
inhibition at 80 mg (Homo sapiens, 80 mg BID, Day 7, AP hemolysis, read-out: AP Inhibition at 12 hr, Mean): 61.5%
inhibition at 80 mg (Homo sapiens, 80 mg BID, Day 14, AP hemolysis, read-out: AP Inhibition at 0 hr, Mean): 79%
inhibition at 80 mg (Homo sapiens, 80 mg BID, Day 14, AP hemolysis, read-out: AP Inhibition at 12 hr, Mean): 52%
inhibition at 120 mg (Homo sapiens, 120 mg BID, AP Hemolysis and AP Wieslab assays, read-out: AP inhibition, mean value at Ctrough): > 90%
inhibition at 120 mg (Homo sapiens, 120 mg BID, Day 7, AP hemolysis, read-out: AP Inhibition at 0 hr, Mean): 91.8%
inhibition at 120 mg (Homo sapiens, 120 mg BID, Day 7, AP hemolysis, read-out: AP Inhibition at 12 hr, Mean): 86%
inhibition at 120 mg (Homo sapiens, 120 mg BID, Day 14, AP hemolysis, read-out: AP Inhibition at 0 hr, Mean): 99.7%
inhibition at 120 mg (Homo sapiens, 120 mg BID, Day 14, AP hemolysis, read-out: AP Inhibition at 12 hr, Mean): 89.7%
inhibition at 200 mg (Homo sapiens, 200 mg BID, AP Hemolysis and AP Wieslab assays, read-out: AP inhibition, mean value at Ctrough): > 95%
inhibition at 200 mg (Homo sapiens, 200 mg BID, Day 7, AP hemolysis, read-out: AP Inhibition at 0 hr, Mean): 95%
inhibition at 200 mg (Homo sapiens, 200 mg BID, Day 7, AP hemolysis, read-out: AP Inhibition at 12 hr, Mean): 97.3%
inhibition at 200 mg (Homo sapiens, 200 mg BID, Day 14, AP hemolysis, read-out: AP Inhibition at 0 hr, Mean): 98.8%
inhibition at 200 mg (Homo sapiens, 200 mg BID, Day 14, AP hemolysis, read-out: AP Inhibition at 12 hr, Mean): 92.8%
inhibition at 40 mg (Homo sapiens, 12 h, 40 mg BID, Days 6 Through 14, AP hemolysis, read-out: AP Inhibition at 12 hr, Mean): 23.3%
inhibition at 80 mg (Homo sapiens, 12 h, 80 mg BID, Days 6 Through 14, AP hemolysis, read-out: AP Inhibition at 12 hr, Mean): 56.8%
inhibition at 120 mg (Homo sapiens, 12 h, 120 mg BID, Days 6 Through 14, AP hemolysis, read-out: AP Inhibition at 12 hr, Mean): 87.8%
inhibition at 200 mg (Homo sapiens, 12 h, 200 mg BID, Days 6 Through 14, AP hemolysis, read-out: AP Inhibition at 12 hr, Mean): 95.1%
inhibition at 0.08 µg/mL (Homo sapiens, at Ctrough of about 80 ng/mL, MAD, ex vivo AP activity assays): ~90%
inhibition at 0.15 µg/mL (Homo sapiens, at Ctrough of about 150 ng/mL, MAD, ex vivo AP activity assays): > 95%
inhibition at 120 mg (Homo sapiens, po, steady state Ctrough, oral 120 mg BID, read-out: mean alternative pathway inhibition): > 95%
EC50 (Homo sapiens, simple Emax model, multiple-dose cohorts, AP hemolysis): 0.0191 µg/mL (≈ 0.0317 µM)
IC90 (Homo sapiens, sigmoidal model, multiple ascending dose, ex-vivo AP hemolysis, FIG. 12, read-out: modeled IC90 drug plasma concentration (90% inhibition level)): 0.088 µg/mL (≈ 0.146 µM)
EC50 [12]: 0.0246 µg/mL (≈ 0.0408 µM)
EC90 [12]: 0.0881 µg/mL (≈ 0.146 µM)
recovery of AP activity to approximately pre-dose levels (all doses, three days after the last dose): ≤ 17 days
potency relative to Danicopan (IC90 plasma concentration) (sigmoidal model, FIG. 12): more than 2.5 times
time of recovery of AP hemolysis activity to nearly pre-dose levels (single-dose cohorts 240 mg and 120 mg): ≤ 48 h

— patent publication US12239645B2, “Targeted dosing for the treatment of complement mediated disorders” (Achillion Pharmaceuticals, Inc., priority 2018, dated 2025)
